# Experiments:
# SK-BR-3 = assay: Antiproliferative activity against human SKBR3 cells assessed as growth inhibition after 5 days by SRB assay; type: functional; details: SK-BR-3, 120 h
# MDA-MB-231 = assay: Antiproliferative activity against human MDA-MB-231 cells assessed as growth inhibition after 5 days by SRB assay; type: functional; details: MDA-MB-231, 120 h
# [1] = molecular target: Serine/threonine-protein kinase PLK2 (Homo sapiens, UniProt Q9NYY3); assay: Inhibition of PLK2 (unknown origin) by FRET-based homogeneous assay
# Serine/threonine-protein kinase PLK2, sequence (Q9NYY3 whole entry): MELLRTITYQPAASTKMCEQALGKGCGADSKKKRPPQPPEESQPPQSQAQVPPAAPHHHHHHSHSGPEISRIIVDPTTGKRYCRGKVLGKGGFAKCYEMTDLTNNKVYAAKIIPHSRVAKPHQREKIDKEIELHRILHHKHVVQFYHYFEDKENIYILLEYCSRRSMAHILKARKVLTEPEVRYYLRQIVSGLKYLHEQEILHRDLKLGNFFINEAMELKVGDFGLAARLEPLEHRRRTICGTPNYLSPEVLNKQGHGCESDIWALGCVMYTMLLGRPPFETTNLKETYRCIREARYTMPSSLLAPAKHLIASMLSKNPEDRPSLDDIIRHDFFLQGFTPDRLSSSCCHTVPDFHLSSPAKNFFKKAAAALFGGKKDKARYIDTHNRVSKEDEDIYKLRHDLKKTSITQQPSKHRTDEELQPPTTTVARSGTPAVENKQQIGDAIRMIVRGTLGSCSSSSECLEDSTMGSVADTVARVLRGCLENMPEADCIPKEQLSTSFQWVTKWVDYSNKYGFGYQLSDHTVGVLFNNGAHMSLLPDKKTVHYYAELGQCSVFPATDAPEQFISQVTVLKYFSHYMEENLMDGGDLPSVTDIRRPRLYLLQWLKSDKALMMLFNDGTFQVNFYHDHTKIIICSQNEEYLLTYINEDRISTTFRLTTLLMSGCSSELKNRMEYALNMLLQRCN
# HCC1954 = assay: Antiproliferative activity against human HCC1954 cells assessed as growth inhibition after 5 days by SRB assay; type: functional; details: HCC1954, 120 h
# MDA-MB-468 = assay: Antiproliferative activity against human MDA-MB-468 cells assessed as growth inhibition after 5 days by SRB assay; type: functional; details: MDA-MB-468, 120 h
# [2] = molecular target: Serine/threonine-protein kinase PLK1 (Homo sapiens, UniProt P53350); assay: Inhibition of PLK1 (unknown origin) by FRET-based homogeneous assay
# Serine/threonine-protein kinase PLK1, sequence (P53350 whole entry): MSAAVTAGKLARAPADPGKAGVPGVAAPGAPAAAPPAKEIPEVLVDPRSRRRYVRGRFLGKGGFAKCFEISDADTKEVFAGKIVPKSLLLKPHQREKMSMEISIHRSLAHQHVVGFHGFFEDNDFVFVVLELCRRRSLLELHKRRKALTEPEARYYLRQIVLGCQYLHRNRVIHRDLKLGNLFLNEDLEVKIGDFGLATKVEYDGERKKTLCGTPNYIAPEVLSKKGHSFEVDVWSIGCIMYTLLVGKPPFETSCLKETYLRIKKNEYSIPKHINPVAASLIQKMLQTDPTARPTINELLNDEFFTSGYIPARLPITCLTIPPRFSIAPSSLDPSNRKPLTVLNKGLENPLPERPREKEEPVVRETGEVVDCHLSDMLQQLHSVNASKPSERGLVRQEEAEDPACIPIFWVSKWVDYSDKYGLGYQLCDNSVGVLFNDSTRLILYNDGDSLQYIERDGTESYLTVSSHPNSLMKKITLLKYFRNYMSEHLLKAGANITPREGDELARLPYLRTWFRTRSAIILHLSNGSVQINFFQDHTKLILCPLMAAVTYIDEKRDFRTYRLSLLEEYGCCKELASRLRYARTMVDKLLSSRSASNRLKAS
# [3] = molecular target: Serine/threonine-protein kinase PLK3 (Homo sapiens, UniProt Q9H4B4); assay: Inhibition of PLK3 (unknown origin) by FRET-based homogeneous assay
# Serine/threonine-protein kinase PLK3, sequence (Q9H4B4 whole entry): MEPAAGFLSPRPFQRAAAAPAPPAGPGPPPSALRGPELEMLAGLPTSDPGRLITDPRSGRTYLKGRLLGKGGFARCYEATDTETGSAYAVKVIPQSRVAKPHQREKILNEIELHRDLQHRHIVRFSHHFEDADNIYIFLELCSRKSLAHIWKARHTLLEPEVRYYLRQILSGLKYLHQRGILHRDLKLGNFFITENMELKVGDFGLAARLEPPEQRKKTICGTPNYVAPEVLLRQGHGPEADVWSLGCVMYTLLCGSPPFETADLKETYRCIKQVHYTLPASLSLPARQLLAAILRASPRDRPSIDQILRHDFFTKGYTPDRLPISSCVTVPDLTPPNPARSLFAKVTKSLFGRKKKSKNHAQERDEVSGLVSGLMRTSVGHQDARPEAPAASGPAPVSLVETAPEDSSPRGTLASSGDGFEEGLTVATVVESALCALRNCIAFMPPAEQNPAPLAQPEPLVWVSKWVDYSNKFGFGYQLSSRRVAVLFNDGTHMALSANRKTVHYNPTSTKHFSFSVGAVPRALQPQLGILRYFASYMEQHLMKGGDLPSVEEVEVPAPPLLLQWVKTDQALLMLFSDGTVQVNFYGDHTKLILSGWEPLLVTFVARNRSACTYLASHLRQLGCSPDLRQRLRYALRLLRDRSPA
# [4] = Permeability of the compound at pH 7.4 by PAMPA; type: ADME; details: read-out: permeability
# MCF7 = assay: Antiproliferative activity against human MCF7 cells assessed as growth inhibition after 5 days by SRB assay; type: functional; details: MCF7, 120 h
# [5] = molecular target: T1, Serine/threonine-protein kinase PLK4 (Homo sapiens, UniProt O00444); assay: Inhibition of N-terminal GST-tagged human PLK4 (1 to 391 amino acids) expressed in Escherichia coli using TMB as substrate after 30 mins by indirect ELISA assay
# T1 sequence (O00444 whole entry): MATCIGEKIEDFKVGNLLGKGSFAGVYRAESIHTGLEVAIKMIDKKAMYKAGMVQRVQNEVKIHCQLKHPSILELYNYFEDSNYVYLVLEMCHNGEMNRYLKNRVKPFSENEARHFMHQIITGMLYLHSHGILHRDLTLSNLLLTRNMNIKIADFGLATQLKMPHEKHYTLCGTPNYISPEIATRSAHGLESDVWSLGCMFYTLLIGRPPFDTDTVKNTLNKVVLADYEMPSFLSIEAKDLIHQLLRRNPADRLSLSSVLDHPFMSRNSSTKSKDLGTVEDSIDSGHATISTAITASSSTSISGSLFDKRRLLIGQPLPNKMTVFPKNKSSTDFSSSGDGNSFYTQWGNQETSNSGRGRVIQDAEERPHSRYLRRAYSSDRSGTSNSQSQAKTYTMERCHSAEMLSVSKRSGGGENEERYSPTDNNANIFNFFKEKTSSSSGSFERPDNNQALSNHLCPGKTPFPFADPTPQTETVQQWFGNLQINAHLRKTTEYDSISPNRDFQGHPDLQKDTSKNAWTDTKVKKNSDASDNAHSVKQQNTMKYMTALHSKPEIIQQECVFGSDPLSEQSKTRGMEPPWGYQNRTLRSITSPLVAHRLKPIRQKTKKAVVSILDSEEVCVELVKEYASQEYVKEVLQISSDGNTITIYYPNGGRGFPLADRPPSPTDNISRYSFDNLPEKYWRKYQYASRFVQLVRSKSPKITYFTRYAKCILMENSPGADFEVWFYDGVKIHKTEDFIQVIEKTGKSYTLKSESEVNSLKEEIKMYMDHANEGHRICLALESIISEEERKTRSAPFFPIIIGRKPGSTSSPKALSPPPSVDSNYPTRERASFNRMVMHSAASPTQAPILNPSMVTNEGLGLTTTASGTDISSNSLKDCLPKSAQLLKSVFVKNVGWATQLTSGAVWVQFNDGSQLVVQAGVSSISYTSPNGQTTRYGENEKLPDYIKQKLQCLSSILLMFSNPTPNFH
# Cytochrome P450 2D6 = Cytochrome P450 2D6 (Homo sapiens, UniProt P10635); assay: Inhibition of CYP2D6 (unknown origin) using AMMC as substrate after 30 mins by fluorescence assay; type: ADME
# Cytochrome P450 2D6, sequence (P10635 whole entry): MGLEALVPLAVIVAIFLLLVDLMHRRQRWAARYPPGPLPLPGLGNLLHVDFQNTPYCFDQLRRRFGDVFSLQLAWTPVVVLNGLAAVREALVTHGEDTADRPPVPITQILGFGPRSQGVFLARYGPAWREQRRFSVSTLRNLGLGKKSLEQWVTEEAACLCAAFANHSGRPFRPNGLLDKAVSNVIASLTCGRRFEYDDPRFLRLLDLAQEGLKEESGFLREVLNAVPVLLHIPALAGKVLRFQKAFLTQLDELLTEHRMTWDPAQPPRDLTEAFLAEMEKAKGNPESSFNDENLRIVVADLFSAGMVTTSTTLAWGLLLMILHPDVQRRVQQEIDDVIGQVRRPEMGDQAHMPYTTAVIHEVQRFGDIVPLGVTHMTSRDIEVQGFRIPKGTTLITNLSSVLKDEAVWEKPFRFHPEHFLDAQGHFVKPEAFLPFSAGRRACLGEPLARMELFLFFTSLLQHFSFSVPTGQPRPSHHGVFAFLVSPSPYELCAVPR
# Cytochrome P450 2C19 = Cytochrome P450 2C19 (Homo sapiens, UniProt P33261); assay: Inhibition of CYP2C19 (unknown origin) using MFC as substrate after 30 mins by fluorescence assay; type: ADME
# Cytochrome P450 2C19, sequence (P33261 whole entry): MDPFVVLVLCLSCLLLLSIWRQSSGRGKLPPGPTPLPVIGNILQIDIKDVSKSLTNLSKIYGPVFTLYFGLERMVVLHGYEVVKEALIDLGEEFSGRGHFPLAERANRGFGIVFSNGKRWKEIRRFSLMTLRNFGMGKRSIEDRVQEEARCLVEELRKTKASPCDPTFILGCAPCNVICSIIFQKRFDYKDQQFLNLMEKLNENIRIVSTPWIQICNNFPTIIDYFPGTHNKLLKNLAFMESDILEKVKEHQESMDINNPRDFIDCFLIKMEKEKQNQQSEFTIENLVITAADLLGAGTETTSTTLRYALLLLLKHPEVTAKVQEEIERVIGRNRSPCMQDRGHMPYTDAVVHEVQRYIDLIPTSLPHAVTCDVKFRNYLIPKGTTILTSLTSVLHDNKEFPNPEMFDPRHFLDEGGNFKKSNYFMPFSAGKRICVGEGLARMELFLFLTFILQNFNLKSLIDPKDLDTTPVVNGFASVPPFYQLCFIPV
# Cytochrome P450 2C9 = Cytochrome P450 2C9 (Homo sapiens, UniProt P11712); assay: Inhibition of CYP2C9 (unknown origin) using MFC as substrate after 45 mins by fluorescence assay; type: ADME
# Cytochrome P450 2C9, sequence (P11712 whole entry): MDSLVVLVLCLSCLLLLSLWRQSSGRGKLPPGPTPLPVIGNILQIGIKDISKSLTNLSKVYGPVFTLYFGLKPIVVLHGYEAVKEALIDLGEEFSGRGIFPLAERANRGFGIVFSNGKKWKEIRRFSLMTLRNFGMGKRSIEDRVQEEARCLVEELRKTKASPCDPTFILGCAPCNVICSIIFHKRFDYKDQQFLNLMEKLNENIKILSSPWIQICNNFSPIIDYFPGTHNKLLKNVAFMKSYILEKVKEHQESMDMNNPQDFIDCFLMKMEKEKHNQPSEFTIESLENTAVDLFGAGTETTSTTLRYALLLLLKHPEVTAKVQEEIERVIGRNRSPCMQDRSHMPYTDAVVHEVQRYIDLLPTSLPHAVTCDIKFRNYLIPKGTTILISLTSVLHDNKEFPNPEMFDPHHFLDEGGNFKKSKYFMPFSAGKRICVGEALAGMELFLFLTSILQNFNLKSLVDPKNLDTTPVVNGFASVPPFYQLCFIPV
# Cytochrome P450 3A4 = Cytochrome P450 3A4 (Homo sapiens, UniProt P08684); assay: Inhibition of CYP3A4 (unknown origin) after 10 mins by fluorescence assay; type: ADME
# Cytochrome P450 3A4, sequence (P08684 whole entry): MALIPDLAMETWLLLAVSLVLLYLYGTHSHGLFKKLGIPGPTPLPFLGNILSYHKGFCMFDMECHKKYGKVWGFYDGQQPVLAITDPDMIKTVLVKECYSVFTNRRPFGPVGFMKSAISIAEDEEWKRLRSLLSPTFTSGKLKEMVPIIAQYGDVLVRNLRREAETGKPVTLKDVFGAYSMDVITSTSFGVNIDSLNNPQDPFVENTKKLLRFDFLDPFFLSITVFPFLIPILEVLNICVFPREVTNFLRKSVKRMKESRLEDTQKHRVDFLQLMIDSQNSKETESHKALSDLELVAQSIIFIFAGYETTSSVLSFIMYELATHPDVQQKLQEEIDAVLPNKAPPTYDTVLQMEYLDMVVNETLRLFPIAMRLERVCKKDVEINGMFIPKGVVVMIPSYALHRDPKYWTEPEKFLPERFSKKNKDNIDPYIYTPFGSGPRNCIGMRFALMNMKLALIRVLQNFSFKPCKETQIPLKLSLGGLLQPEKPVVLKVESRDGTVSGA
# Cytochrome P450 1A2 = molecular target: T2, Cytochrome P450 1A2 (Homo sapiens, UniProt P05177); assay: Inhibition of CYP1A2 (unknown origin) using CEC as substrate after 15 mins by fluorescence assay; type: ADME
# T2 sequence (P05177 whole entry): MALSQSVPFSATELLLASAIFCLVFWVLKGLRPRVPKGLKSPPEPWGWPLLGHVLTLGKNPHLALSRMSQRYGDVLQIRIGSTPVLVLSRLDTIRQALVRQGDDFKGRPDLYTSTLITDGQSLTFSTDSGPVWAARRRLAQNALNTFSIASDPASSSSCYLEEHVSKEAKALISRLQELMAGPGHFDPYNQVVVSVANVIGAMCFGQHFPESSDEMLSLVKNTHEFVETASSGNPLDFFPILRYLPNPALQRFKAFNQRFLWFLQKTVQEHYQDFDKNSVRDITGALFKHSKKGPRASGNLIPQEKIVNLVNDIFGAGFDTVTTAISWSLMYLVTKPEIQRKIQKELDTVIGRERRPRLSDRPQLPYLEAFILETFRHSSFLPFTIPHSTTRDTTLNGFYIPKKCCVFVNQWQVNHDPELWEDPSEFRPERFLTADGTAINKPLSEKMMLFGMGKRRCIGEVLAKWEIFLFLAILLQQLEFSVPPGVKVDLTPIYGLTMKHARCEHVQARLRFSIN
SMILES,GI50 (SK-BR-3),GI50 (MDA-MB-231),IC50 [1],GI50 (HCC1954),GI50 (MDA-MB-468),IC50 [2],IC50 [3],Papp [4],GI50 (MCF7),IC50 [5],IC50 (Cytochrome P450 2D6),IC50 (Cytochrome P450 2C19),IC50 (Cytochrome P450 2C9),IC50 (Cytochrome P450 3A4),IC50 (Cytochrome P450 1A2)
O=C1Nc2ccccc2/C1=C\c1ccc2c(/C=C/c3ccc(C(=O)O)cc3)n[nH]c2c1,16 µM,> 50 µM,> 10 µM,2 µM,0.8 µM,> 10 µM,> 10 µM,2.1 ×10⁻⁶ cm/s,6.8 µM,0.00082 µM,,,,,
O=C1Nc2ccccc2/C1=C\c1ccc2c(/C=C/c3ccccn3)n[nH]c2c1,1.2 µM,8.1 µM,> 10 µM,30 µM,0.78 µM,> 10 µM,> 10 µM,,1.7 µM,0.013 µM,,,,,
O=C1Nc2ccccc2/C1=C\c1ccc2c(/C=C/c3cccnc3)n[nH]c2c1,> 50 µM,> 50 µM,> 10 µM,12 µM,0.29 µM,> 10 µM,> 10 µM,,0.28 µM,0.002 µM,,,,,
CCc1ccc2c(c1)/C(=C\c1ccc3c(/C=C/c4cccnc4)n[nH]c3c1)C(=O)N2,13 µM,> 50 µM,> 10 µM,33 µM,0.09 µM,> 10 µM,> 10 µM,,1.7 µM,0.0016 µM,,,,,
COc1ccc2c(c1)/C(=C\c1ccc3c(/C=C/c4cccnc4)n[nH]c3c1)C(=O)N2,4.6 µM,> 50 µM,> 10 µM,> 50 µM,0.19 µM,> 10 µM,> 10 µM,,0.12 µM,0.00048 µM,,,,,
O=C1Nc2ccc(Cl)cc2/C1=C\c1ccc2c(/C=C/c3ccncc3)n[nH]c2c1,> 50 µM,> 50 µM,> 10 µM,> 50 µM,0.32 µM,> 10 µM,> 10 µM,,0.16 µM,0.0023 µM,,,,,
Cc1ccc2c(c1)/C(=C\c1ccc3c(/C=C/c4ccncc4)n[nH]c3c1)C(=O)N2,> 50 µM,5 µM,> 10 µM,13 µM,0.12 µM,> 10 µM,> 10 µM,,0.07 µM,0.0014 µM,,,,,
COc1ccc2c(c1)/C(=C\c1ccc3c(/C=C/c4ccncc4)n[nH]c3c1)C(=O)N2,,21 µM,> 10 µM,3.1 µM,0.14 µM,> 10 µM,> 10 µM,,0.04 µM,0.00045 µM,,,,,
O=C1Nc2ccc(O)cc2/C1=C\c1ccc2c(/C=C/c3ccncc3)n[nH]c2c1,> 50 µM,,> 10 µM,> 50 µM,0.73 µM,> 10 µM,> 10 µM,4 ×10⁻⁶ cm/s,> 50 µM,0.0009 µM,,,,,
O=C1Nc2ccccc2/C1=C\c1ccc2c(/C=C/c3ccccc3)n[nH]c2c1,12 µM,> 50 µM,> 10 µM,,4.4 µM,> 10 µM,> 10 µM,,5.2 µM,0.042 µM,,,,,
COc1ccc2c(c1)/C(=C\c1ccc3c(/C=C/c4ccc(CN(C)C)cc4)n[nH]c3c1)C(=O)N2,0.03 µM,0.01 µM,> 10 µM,1.4 µM,0.03 µM,> 10 µM,> 10 µM,,< 0.01 µM,0.00032 µM,,,,,
CN1CCN(c2ccc(/C=C/c3n[nH]c4cc(/C=C5/C(=O)Nc6ccccc65)ccc34)cn2)CC1,1.1 µM,< 0.01 µM,> 10 µM,0.37 µM,0.02 µM,> 10 µM,> 10 µM,335 ×10⁻⁶ cm/s,0.02 µM,0.0014 µM,10 µM,0.44 µM,0.9 µM,0.8 µM,10 µM
COc1cc(/C=C2\C(=O)Nc3ccc(Br)cc32)cc(Cl)c1O,,,,,,3.6 µM,,,,0.86 µM,,,,,
COc1cc(/C=C2\C(=O)N(C)c3ccc(Br)cc32)cc(Cl)c1O,,,,,,> 10 µM,,,,6.1 µM,,,,,
COc1cc(/C=C2\C(=O)Nc3ccc(Br)cc32)cc(Br)c1OC,,,,,,> 10 µM,,,,13 µM,,,,,
O=C1Nc2ccccc2/C1=C/c1cccc(O)c1,,,,,,25 µM,,,,0.86 µM,,,,,

# Source: ChEMBL document CHEMBL2406977, “The discovery of PLK4 inhibitors: (E)-3-((1H-Indazol-6-yl)methylene)indolin-2-ones as novel antiproliferative agents” (J Med Chem, 2013)
